The text below walks through data of US20210254173A1, “PREDICTIVE 7-GENE ASSAY AND PROGNOSTIC PROTEIN BIOMARKER FOR NON-SMALL CELL LUNG CANCER” (West Virginia University, priority 2018, published 2021).

Assay type in all cases: in vivo, human
One experiment concerns FUT7. Kind of experiment: Chemoresponse prediction: Cox proportional hazard model using FUT7 ΔCt values in qRT-PCR assays of NSCLC patients. On the procedure:
Patient samples. All NSCLC patients were staged I, II, or IIIA at the time of diagnosis. Tumor tissues were collected in surgical resections and were snap-frozen at −80° C. until used for RNA extraction. Tumor cell content was above 50% for qRT-PCR assays. Those with missing AJCC staging information, missing histology, death within 30 days of resection or from other disease conditions were excluded from further analysis. A total of 122 NSCLC patient samples were obtained from Case Western Reserve University (CWRU) Comprehensive Cancer Center. Total RNA of good quality was extracted from 89 tumor specimens. […]
RNA extraction, and quality and concentration assessments. […] The quality and integrity of the RNA, the 28S to 18S ratio, and a visual image of the 28S and 18S bands were evaluated on the 2100 Bioanalyzer (Agilent Technologies, CA). RNA assessed as having good quality from […] tumor samples was included for further analysis. The RNA concentration of each sample was assessed using a Nanodrop-1000 Spectrophotometer (NanoDrop Tech, Germany). […]
(§1) Real-time quantitative RT-PCR low-density arrays. […]
Three hundred thirty seven (337) tumor samples were analyzed with good RNA quality using TaqMan microfluidic low-density array (LDA) plates on an ABI 7900HT Fast RT-PCR instrument (Applied Biosystems). Total RNA samples were analyzed on an Agilent 2100 Bioanalyzer RNA 6000 Nano LabChip. […]

Another experiment has as its system SLC39A8. Kind of experiment: Chemoresponse prediction: Cox proportional hazard model using SLC39A8 ΔCt values in qRT-PCR assays of NSCLC patients. The following applies: prediction by high SLC39A8 expression. On the procedure:
(§2) Patient samples. All NSCLC patients were staged I, II, or IIIA at the time of diagnosis. Tumor tissues were collected in surgical resections and were snap-frozen at −80° C. until used for RNA extraction. Tumor cell content was above 50% for qRT-PCR assays. Those with missing AJCC staging information, missing histology, death within 30 days of resection or from other disease conditions were excluded from further analysis. A total of 122 NSCLC patient samples were obtained from Case Western Reserve University (CWRU) Comprehensive Cancer Center. […] The tissue collection in this study was approved by an Institutional Review Board (IRB) at each institution.
RNA extraction, and quality and concentration assessments. […] The quality and integrity of the RNA, the 28S to 18S ratio, and a visual image of the 28S and 18S bands were evaluated on the 2100 Bioanalyzer (Agilent Technologies, CA). […] The RNA concentration of each sample was assessed using a Nanodrop-1000 Spectrophotometer (NanoDrop Tech, Germany). […]
as §1
(§3) Three hundred thirty seven (337) tumor samples were analyzed with good RNA quality using TaqMan microfluidic low-density array (LDA) plates on an ABI 7900HT Fast RT-PCR instrument (Applied Biosystems).

Another experiment concerns ABCC4. As to the kind of experiment: Chemoresponse prediction: Cox proportional hazard model using ABCC4 ΔCt values in qRT-PCR assays of NSCLC patients. On the procedure:
as §2
RNA extraction, and quality and concentration assessments. Total RNA was extracted from snap-frozen tumor tissues using a RNeasy mini kit according the manufacturer's protocol (Qiagen, USA), followed by elution in 30 μl of RNase-free water and storage at −80° C. The quality and integrity of the RNA, the 28S to 18S ratio, and a visual image of the 28S and 18S bands were evaluated on the 2100 Bioanalyzer (Agilent Technologies, CA). […] The RNA concentration of each sample was assessed using a Nanodrop-1000 Spectrophotometer (NanoDrop Tech, Germany).
Generation of complementary DNA (cDNA). The reverse transcriptase polymerase chain reaction was used to convert the high-quality single-stranded RNA samples to double-stranded cDNA, using an Applied Biosystems GeneAmp® PCR 9700 machine (Foster City, Calif.). For standardization across all samples, one microgram of RNA was used to generate cDNA.
Real-time quantitative RT-PCR low-density arrays. Real-time qRT-PCR assays of independent patient cohorts of NSCLC tumor samples were used to further select biomarkers to form a multi-gene assay from prognostic genes identified from microarray data in our previous studies.
as §3

Where [1] appears, read: ABCC4 ΔCt as covariate, Cox model, NSCLC patients treated with the named agent(s).

Take `N.N.O=C([O-])C1(C(=O)[O-])CCC1.[Pt+2]` [Carboplatin, carboplatin]: the “Hazard ratio of death from disease with 95% CI” value in the experiment on FUT7 (FUT7 ΔCt as covariate, Cox model, NSCLC patients treated with the named agent) was 1.605. Besides, the Chemosensitive/resistant entry in the experiment with FUT7 (prediction by high FUT7 expression) was “Chemosensitive”.
Take `CC(=O)O[C@H]1C(=O)[C@@]2(C)[C@H]([C@H](OC(=O)c3ccccc3)[C@]3(O)C[C@H](OC(=O)[C@H](O)[C@@H](NC(=O)c4ccccc4)c4ccccc4)C(C)=C1C3(C)C)[C@]1(OC(C)=O)CO[C@@H]1C[C@@H]2O` [Taxol, paclitaxel]: in the experiment with SLC39A8, the Chemosensitive/resistant result is recorded as “Chemoresistant”. Moreover, in the experiment with ABCC4 (setting [1]), the “Hazard ratio of death from disease with 95% CI” value was 0.403 and the “Hazard ratio of recurrence with 95% CI” value is listed as 0.48. For the same molecule, the Chemosensitive/resistant entry in the experiment on ABCC4 (prediction by high ABCC4 expression, patients treated with the named agent(s)) is on record as “Chemoresistant”.
Turning to `Nc1nc2[nH]cc(CCc3ccc(C(=O)N[C@@H](CCC(=O)O)C(=O)O)cc3)c2c(=O)[nH]1` [Alimta, pemetrexed], the Chemosensitive/resistant entry in the experiment on SLC39A8 is given as “Chemoresistant”.
